Where a name gives a salt, the structure may show the parent alone.
How the values were obtained:
[1] = molecular target: T1, cKGA (kidney-type glutaminase) (Homo sapiens, UniProt O94925); settings: cited from earlier work
T1 sequence (O94925 221-533 limits assumed): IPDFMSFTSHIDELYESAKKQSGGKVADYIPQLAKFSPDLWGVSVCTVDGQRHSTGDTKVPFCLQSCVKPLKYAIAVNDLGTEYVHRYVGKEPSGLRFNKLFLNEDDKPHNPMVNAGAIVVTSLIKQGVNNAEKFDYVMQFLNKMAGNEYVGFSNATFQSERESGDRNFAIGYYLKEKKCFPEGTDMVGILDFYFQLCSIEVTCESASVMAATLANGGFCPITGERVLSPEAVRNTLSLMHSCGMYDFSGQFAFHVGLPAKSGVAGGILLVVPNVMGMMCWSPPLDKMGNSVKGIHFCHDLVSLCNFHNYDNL

[2] = molecular target: T2, GLS2 (Homo sapiens, UniProt Q9UI32); settings: cited from earlier work
T2 sequence (Q9UI32 15-602): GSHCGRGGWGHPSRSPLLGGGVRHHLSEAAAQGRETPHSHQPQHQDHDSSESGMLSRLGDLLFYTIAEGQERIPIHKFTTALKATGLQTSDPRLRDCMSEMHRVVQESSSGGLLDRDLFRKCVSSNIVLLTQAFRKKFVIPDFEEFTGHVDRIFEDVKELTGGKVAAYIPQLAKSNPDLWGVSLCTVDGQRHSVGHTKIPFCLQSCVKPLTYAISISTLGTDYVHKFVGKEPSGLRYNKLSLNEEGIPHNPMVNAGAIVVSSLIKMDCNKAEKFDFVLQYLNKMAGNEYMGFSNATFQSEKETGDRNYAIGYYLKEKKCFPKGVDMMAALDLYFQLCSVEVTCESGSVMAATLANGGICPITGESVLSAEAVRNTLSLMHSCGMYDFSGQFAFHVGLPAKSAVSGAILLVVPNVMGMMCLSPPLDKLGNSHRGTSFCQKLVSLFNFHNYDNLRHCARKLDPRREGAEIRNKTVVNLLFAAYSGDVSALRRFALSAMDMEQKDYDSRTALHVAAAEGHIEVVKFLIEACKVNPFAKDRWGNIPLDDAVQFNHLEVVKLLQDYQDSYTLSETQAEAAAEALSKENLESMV

[3] = system: irradiated, senescent HUVEC cells; assay: Senolytic assay: irradiated senescent vs non-senescent HUVEC cells (CellTiter-Glo); format: cell-based, human; settings: 1:3 dilution series, dose-dependent (FIG. 3B, 4, 6A, 6B)
Excerpt: (§1) The ability of candidate agents to eliminate senescent retinal vascular endothelial cells or senescent retinal pigmented epithelial cells can be measured directly in the following assay. Human retinal microvascular endothelial cells (HRMEC) can be obtained from Neuromics® with the designation HEC09 or Cell Systems ACBRI 181. Human umbilical vein endothelial cells (HUVEC) can be obtained from Lonza® with the designation CC-2519. The cells can be maintained and propagated at <75% confluency in ENDO-Growth® Media (Neuromics®, Edina M N) at 3% O2, 10% CO2, and ˜95% humidity. Human retinal pigmented epithelial cells (RPE) can be obtained from Lonza® with the designation 194987. […]
(§2) On day 0, the irradiated HRMEC or RPE or HUVEC cells can be incubated with TrypLE trypsin-containing reagent (Thermofisher® Scientific, Waltham, Massachusetts) until the cells round up and begin to detach from the plate. Cells can then be dispersed, counted, and prepared in medium at a concentration of 100,000 cells per mL. […] On day 3, the quiescent healthy non-senescent HRMEC or RPE cells can be trypsinized from the culture flask as described above, and the cells can be dispersed, counted, and prepared in medium at a concentration of 80,000 cells per mL. […]

[4] = system: irradiated, senescent HRMEC cells; assay: Senolytic assay: irradiated senescent vs non-senescent HRMEC cells (CellTiter-Glo); format: cell-based, human; settings: 1:3 dilution series, dose-dependent (FIG. 3A, FIG. 5)
Excerpt: as §1, §2

[5] = molecular target: T3, GPX4 (Mus musculus, UniProt O70325); assay: GPX4 competitive target engagement gel-shift assay, adult murine retinas; format: in vivo; settings: integrated band density (FIGS. 8A-8C)
T3 construct: from tissue; host or cells: adult murine retina
T3 sequence (O70325 whole entry): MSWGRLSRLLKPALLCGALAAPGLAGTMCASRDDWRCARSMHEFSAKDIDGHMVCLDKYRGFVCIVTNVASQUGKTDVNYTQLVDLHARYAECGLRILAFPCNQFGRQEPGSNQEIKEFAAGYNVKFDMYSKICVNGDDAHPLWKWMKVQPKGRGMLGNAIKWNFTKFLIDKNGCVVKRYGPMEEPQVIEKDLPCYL
Procedure: A gel shift assay was developed for the detection of either in vitro cell line or in vivo tissue target engagement (TE) of a GPX4 inhibitor. See FIG. 7 for a schematic of the assay.
In vitro labeling protocol: Two frozen murine retinas were added directly to 0.5 mL Precellys® tubes with ceramic beads and 200 μL of cold mPER with 1× Roche EDTA-free protease inhibitors and 5 mM TCEP. The retina tissue was homogenized using a single 15 s burst at 4500 RPM at 4° C. The tubes were spun at 5 k×g for 5 min @ 4° C. to remove the foam, then all liquid was transferred to 1.5 mL Eppendorfs®. The samples were spun @ 20 k×g for 10 min at 4° C., and the clarified lysates were transferred to clean tubes. 27.5 μL of each of the vehicle controls were combined into one tube to provide a labeling standard sample.
For the labeling control, 50 μL of sample was added to 1 μL of 5 mM RSL3 and another 50 μL of sample was added to DMSO as a control. The samples were mixed and incubated for 1 hr at room temperature (RT). […]
Blots were blocked with 5% Milk in TBST for 1 hr. […] Anti-rabbit-HRP was used at 1:5000 in 5% milk in TBST for ˜1 hr RT and signal was detected using the Western Pico® ECL reagent. […] The integrated density of bands for +/−streptavidin was quantitated using ImageJ® (National Institutes of Health).

[6] = molecular target: T4, transglutaminase 2 (TGase 2) (Homo sapiens, UniProt P21980); settings: under a modified assay condition; cited from earlier work
T4 sequence (P21980 1-687): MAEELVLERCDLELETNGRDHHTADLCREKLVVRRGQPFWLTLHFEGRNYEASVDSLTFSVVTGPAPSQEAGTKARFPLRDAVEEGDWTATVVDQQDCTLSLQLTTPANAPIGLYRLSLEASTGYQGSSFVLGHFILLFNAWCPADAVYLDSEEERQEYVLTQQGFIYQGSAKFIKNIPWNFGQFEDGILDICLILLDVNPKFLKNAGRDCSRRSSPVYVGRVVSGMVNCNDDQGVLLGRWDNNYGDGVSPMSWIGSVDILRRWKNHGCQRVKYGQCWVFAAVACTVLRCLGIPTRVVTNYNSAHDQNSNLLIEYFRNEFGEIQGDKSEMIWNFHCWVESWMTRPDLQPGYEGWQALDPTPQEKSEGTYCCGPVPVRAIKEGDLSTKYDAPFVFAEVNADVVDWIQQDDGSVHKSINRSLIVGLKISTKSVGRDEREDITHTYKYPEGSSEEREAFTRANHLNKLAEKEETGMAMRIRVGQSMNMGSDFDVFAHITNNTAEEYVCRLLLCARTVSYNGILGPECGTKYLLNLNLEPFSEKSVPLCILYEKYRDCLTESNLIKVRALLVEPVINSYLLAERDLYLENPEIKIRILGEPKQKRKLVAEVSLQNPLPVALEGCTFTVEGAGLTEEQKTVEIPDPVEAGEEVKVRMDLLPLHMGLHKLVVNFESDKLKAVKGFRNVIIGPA

Molecule	selective killing of senescent HUVEC cells as compared to non-senescent HUVECs [3]	selective killing of senescent HRMEC cells as compared to non-senescent HRMECs [4]	other results
[N-]=[N+]=CC(=O)CC[C@H](N)C(=O)O [6-Diazo-5-oxo-L-norleucine]	–	–	IC50 [1]: ~1000 µM
CNC(=O)c1cn(C[C@H](F)CCc2ccc(NC(=O)Cc3cc(OC4CC(F)(F)C4)cc(C)n3)nn2)nn1 [IPN-60090 dihydrochloride]	–	–	activity against GLS-2 [2]: no activity observed
O=C(/C(C[N+](=O)[O-])=N/O)N1CCN(C(c2ccc(Cl)cc2)c2ccc(Cl)cc2)CC1 [JKE-1674, (E)-1-(4-(bis(4-chlorophenyl)methyl)piperazin-1-yl)-2-(hydroxyimino)-3-nitropropan-1-one]	selectively senolytic	–	–
Cc1onc(C(=O)N2CCN(C(c3ccc(Cl)cc3)c3ccc(Cl)cc3)CC2)c1[N+](=O)[O-] [ML210]	–	selectively senolytic	–
COC(=O)c1ccc([C@H]2c3[nH]c4ccccc4c3C[C@H](C(=O)OC)N2C(=O)CCl)cc1 [RSL3, (1S,3R)-methyl 2-(2-chloroacetyl)-1-(4-(methoxycarbonyl)phenyl)-2,3,4,9-tetrahydro-1H-pyrido[3,4-b]indole-3-carboxylate]	selectively senolytic	selectively senolytic	GPX4 target engagement (TE) [5]: dose-dependent GPX4 TE
GK921	–	–	IC50 [6]: 8.93 µM

Reference: US20240245680A1, “Methods of Treating Retinal Vasculopathies” (Unity Biotechnology, Inc., priority 2021, published 2024)
